Read-outs that look alike come from different tables or passages of the source. Numbered stars: 1 amine (or outer) side, 2 acyl side, 3 side chain; on linkers, the order of the positions; unused ones are H or OH. Square brackets hold non-standard residues; d marks the D form. Side chains are listed from the residue outwards. Peptide text beside a SMILES is read from it. * marks the point of attachment. C20 diacid = O=C(O)CCCCCCCCCCCCCCCCCCC(=O)*; γGlu = O=C(O)[C@H](CCC(=O)[*:2])N[*:1]; AEEA = NCCOCCOCC(=O)O; Aib = CC(C)(N)C(=O)O
Columns and labels:
[1] = Turbidity of crude library peptides (absorbance at 600 nm); type: physicochemical; settings: Physical stability of peptides
How it was run: (§1)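 Values reflect mean ThT emission (ex 450, em 480 nm) over 72 h at 40° C, read every 10 min after 5 min shaking at 700 rpm, plus a single initial absorbance at 600 nm for turbidity. Peptides were at 267 μM, pH 4.0 acetate or pH 7.0 phosphate (50 mM), with 4 μM ThT.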

[2] = Fibril formation of crude library peptides (Thioflavin T); type: physicochemical; parameters: key: average ThT fluorescence emission at 480 nm (ex 450 nm), raw units; settings: Physical stability of peptides
How it was run: as §1

GLP1R = GLP1R (Homo sapiens, UniProt P43220); assay: hGLP1R potency, cAMP accumulation in CHO-K1 cells stably overexpressing hGLP1R; type: cell-based; parameters: host or cells: CHO-K1; settings: for SCTR EC50/GLP1R EC50 ratio: selectivity for hGLP1R over hSCTR, cAMP accumulation in CHO-K1 cells; for Selectivity: SCTR EC50/GLP1R EC50 ratio
GLP1R, sequence (P43220 24-463): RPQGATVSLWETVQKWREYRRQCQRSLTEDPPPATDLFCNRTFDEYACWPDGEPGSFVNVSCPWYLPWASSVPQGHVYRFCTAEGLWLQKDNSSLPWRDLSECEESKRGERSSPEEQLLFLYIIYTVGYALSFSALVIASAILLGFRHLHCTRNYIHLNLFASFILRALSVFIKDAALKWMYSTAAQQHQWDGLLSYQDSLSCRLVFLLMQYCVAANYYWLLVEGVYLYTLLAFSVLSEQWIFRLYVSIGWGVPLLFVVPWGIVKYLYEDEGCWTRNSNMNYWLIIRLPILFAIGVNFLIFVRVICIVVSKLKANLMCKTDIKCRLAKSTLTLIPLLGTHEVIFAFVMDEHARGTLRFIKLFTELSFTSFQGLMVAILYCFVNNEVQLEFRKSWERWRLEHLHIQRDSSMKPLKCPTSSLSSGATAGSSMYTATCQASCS
How it was run: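 Potency reflects cAMP accumulation measured by time-resolved fluorescence energy transfer after a 30 min room-temperature stimulation in IBMX-containing (0.5 mM) DPBS with casein. Purified peptides were tested in duplicate over eleven threefold dilutions, and EC50 was obtained from sigmoid concentration-response fitting.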

SCTR = SCTR (Homo sapiens, UniProt P47872); assay: hSCTR potency, cAMP accumulation in CHO-K1 cells stably overexpressing hSCTR; type: cell-based; parameters: alternatively Euroscreen ES-712-AF; FAST-0161L; host or cells: CHO-K1
SCTR, sequence (P47872 23-440): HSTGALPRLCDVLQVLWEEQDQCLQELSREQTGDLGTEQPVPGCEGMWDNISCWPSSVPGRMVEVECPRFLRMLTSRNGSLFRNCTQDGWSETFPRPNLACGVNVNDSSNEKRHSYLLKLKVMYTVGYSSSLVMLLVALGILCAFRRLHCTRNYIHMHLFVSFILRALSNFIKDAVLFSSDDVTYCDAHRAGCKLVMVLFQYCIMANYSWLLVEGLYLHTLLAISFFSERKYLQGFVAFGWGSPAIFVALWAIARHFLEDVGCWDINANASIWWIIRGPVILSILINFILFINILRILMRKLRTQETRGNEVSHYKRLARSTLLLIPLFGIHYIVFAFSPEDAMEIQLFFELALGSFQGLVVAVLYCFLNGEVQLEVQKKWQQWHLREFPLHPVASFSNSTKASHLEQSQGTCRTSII
How it was run: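 Potency reflects cAMP accumulation after 30 min agonist exposure at room temperature in hSCTR-expressing CHO-K1 cells, with 0.5 mM IBMX present to block phosphodiesterase. EC50 was derived by nonlinear regression.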

[3] = cAMP accumulation, CHO-K1 cells overexpressing hGLP1R, read-out: hGLP1R pEC50 (converted)
[4] = cAMP accumulation, CHO-K1 cells overexpressing hSCTR, read-out: hSCTR pEC50 (converted)

SMILES | Turbidity (pH 7) [1] | Fibril formation [2] | EC50 (GLP1R; [3]) [nM] | SCTR EC50/GLP1R EC50 ratio (GLP1R) | EC50 (SCTR; [4]) [nM] | Selectivity (GLP1R) | EC50 (GLP1R; cAMP accumulation, CHO-K1 cells overexpressing hGLP1R, read-out: pEC50 hGLPR1 (converted)) [nM] | EC50 (SCTR; cAMP accumulation, CHO-K1 cells overexpressing hSCTR, read-out: pEC50 hSCTR (converted)) [nM] | EC50 (GLP1R) [nM] | EC50 (SCTR) [nM]
CC(C)C[C@H](NC(=O)[C@H](Cc1ccccc1)NC(=O)[C@H](CCCNC(=N)N)NC(=O)[C@H](CCC(N)=O)NC(=O)[C@H](CO)NC(=O)C(C)(C)NC(=O)[C@H](C)NC(=O)[C@H](CCC(=O)O)NC(=O)[C@H](CCC(=O)O)NC(=O)[C@H](CCCCNC(=O)COCCOCCNC(=O)COCCOCCNC(=O)CC[C@H](NC(=O)CCCCCCCCCCCCCCCCCCC(=O)O)C(=O)O)NC(=O)[C@H](CC(C)C)NC(=O)[C@H](Cc1ccc(O)cc1)NC(=O)[C@H](CO)NC(=O)[C@@H](NC(=O)[C@H](CC(=O)O)NC(=O)[C@H](CO)NC(=O)[C@@H](NC(=O)[C@H](Cc1ccccc1)NC(=O)[C@@H](NC(=O)CNC(=O)[C@H](CCC(=O)O)NC(=O)C(C)(C)NC(=O)[C@@H](N)Cc1c[nH]cn1)[C@@H](C)O)[C@@H](C)O)C(C)C)C(=O)N[C@@H](CCC(=O)O)C(=O)N[C@@H](Cc1c[nH]cn1)C(=O)N[C@@H](CC(C)C)C(=O)N[C@H](C(N)=O)C(C)C [compound 134] (H-H[Aib]EGTFTSDVSYLK([AEEA-AEEA-γGlu-C20 diacid])EEA[Aib]SQRFLEHLV-NH2) | 0.08 | 3061 | 0.00794 | 303145 | 2510 |  |  |  |  | 
CC(C)C[C@H](NC(=O)[C@H](Cc1ccccc1)NC(=O)[C@H](CCCNC(=N)N)NC(=O)[C@H](CCC(N)=O)NC(=O)[C@H](C)NC(=O)[C@H](C)NC(=O)[C@H](C)NC(=O)[C@H](CCC(=O)O)NC(=O)[C@H](CCC(=O)O)NC(=O)[C@H](CCCCNC(=O)COCCOCCNC(=O)COCCOCCNC(=O)CC[C@H](NC(=O)CCCCCCCCCCCCCCCCCCC(=O)O)C(=O)O)NC(=O)[C@H](CC(C)C)NC(=O)[C@@H](NC(=O)[C@H](CO)NC(=O)[C@@H](NC(=O)[C@H](CC(=O)O)NC(=O)[C@H](CO)NC(=O)[C@@H](NC(=O)[C@H](Cc1ccccc1)NC(=O)[C@@H](NC(=O)CNC(=O)[C@H](CCC(=O)O)NC(=O)C(C)(C)NC(=O)[C@@H](N)Cc1c[nH]cn1)[C@@H](C)O)[C@@H](C)O)C(C)C)C(C)C)C(=O)N[C@@H](CCC(=O)O)C(=O)N[C@@H](Cc1c[nH]cn1)C(=O)N[C@@H](CC(C)C)C(=O)N[C@H](C(N)=O)C(C)C [compound 28] (H-H[Aib]EGTFTSDVSVLK([AEEA-AEEA-γGlu-C20 diacid])EEAAAQRFLEHLV-NH2) | 0.09 | 7910 |  |  |  | 55501 | 0.02 | 1260 |  | 
CC(C)C[C@H](NC(=O)[C@H](Cc1c[nH]c2ccccc12)NC(=O)[C@H](CCCNC(=N)N)NC(=O)[C@H](CCC(N)=O)NC(=O)[C@H](CC(C)C)NC(=O)C(C)(C)NC(=O)[C@H](C)NC(=O)[C@H](CCC(=O)O)NC(=O)[C@H](CCC(=O)O)NC(=O)[C@H](CCCCNC(=O)COCCOCCNC(=O)COCCOCCNC(=O)CC[C@H](NC(=O)CCCCCCCCCCCCCCCCCCC(=O)O)C(=O)O)NC(=O)[C@H](CC(C)C)NC(=O)[C@H](Cc1ccc(O)cc1)NC(=O)[C@H](CO)NC(=O)[C@@H](NC(=O)[C@H](CC(=O)O)NC(=O)[C@H](CO)NC(=O)[C@@H](NC(=O)[C@H](Cc1ccccc1)NC(=O)[C@@H](NC(=O)CNC(=O)[C@H](CCC(=O)O)NC(=O)C(C)(C)NC(=O)[C@@H](N)Cc1c[nH]cn1)[C@@H](C)O)[C@@H](C)O)C(C)C)C(=O)N[C@@H](CCC(=O)O)C(=O)N[C@@H](Cc1c[nH]cn1)C(=O)N[C@@H](CC(C)C)C(=O)N[C@H](C(N)=O)C(C)C [compound 135] (H-H[Aib]EGTFTSDVSYLK([AEEA-AEEA-γGlu-C20 diacid])EEA[Aib]LQRWLEHLV-NH2) | 0.09 | 4491 | 0.00501 | 22241 | 126 |  |  |  |  | 
CC(C)C[C@H](NC(=O)[C@H](Cc1ccccc1)NC(=O)[C@H](CCCNC(=N)N)NC(=O)[C@H](CCC(N)=O)NC(=O)[C@H](CCC(N)=O)NC(=O)[C@H](C)NC(=O)[C@H](C)NC(=O)C(C)(C)NC(=O)[C@H](CCC(=O)O)NC(=O)[C@H](CCCCNC(=O)COCCOCCNC(=O)COCCOCCNC(=O)CC[C@H](NC(=O)CCCCCCCCCCCCCCCCCCC(=O)O)C(=O)O)NC(=O)[C@H](CC(C)C)NC(=O)[C@@H](NC(=O)[C@H](CO)NC(=O)[C@@H](NC(=O)[C@H](CC(=O)O)NC(=O)[C@H](CO)NC(=O)[C@@H](NC(=O)[C@H](Cc1ccccc1)NC(=O)[C@@H](NC(=O)CNC(=O)[C@H](CCC(=O)O)NC(=O)C(C)(C)NC(=O)[C@@H](N)Cc1c[nH]cn1)[C@@H](C)O)[C@@H](C)O)C(C)C)[C@@H](C)O)C(=O)N[C@@H](CCC(=O)O)C(=O)N[C@@H](Cc1c[nH]cn1)C(=O)N[C@@H](CC(C)C)C(=O)N[C@H](C(N)=O)C(C)C [compound 88] (H-H[Aib]EGTFTSDVSTLK([AEEA-AEEA-γGlu-C20 diacid])E[Aib]AAQQRFLEHLV-NH2) | 0.08 | 10893 | 0.00398 | 42658 | 158 |  |  |  |  | 
CC(C)C[C@H](NC(=O)[C@H](Cc1ccccc1)NC(=O)[C@H](CCCNC(=N)N)NC(=O)[C@H](CCC(N)=O)NC(=O)[C@H](C)NC(=O)[C@H](C)NC(=O)[C@H](C)NC(=O)C(C)(C)NC(=O)[C@H](CCC(=O)O)NC(=O)[C@H](CCCCNC(=O)COCCOCCNC(=O)COCCOCCNC(=O)CC[C@H](NC(=O)CCCCCCCCCCCCCCCCCCC(=O)O)C(=O)O)NC(=O)[C@H](CC(C)C)NC(=O)[C@@H](NC(=O)[C@H](CO)NC(=O)[C@@H](NC(=O)[C@H](CC(=O)O)NC(=O)[C@H](CO)NC(=O)[C@@H](NC(=O)[C@H](Cc1ccccc1)NC(=O)[C@@H](NC(=O)CNC(=O)[C@H](CCC(=O)O)NC(=O)C(C)(C)NC(=O)[C@@H](N)Cc1c[nH]cn1)[C@@H](C)O)[C@@H](C)O)C(C)C)[C@@H](C)O)C(=O)N[C@@H](CCC(=O)O)C(=O)N[C@@H](Cc1c[nH]cn1)C(=O)N[C@@H](CC(C)C)C(=O)N[C@H](C(N)=O)C(C)C [compound 43] (H-H[Aib]EGTFTSDVSTLK([AEEA-AEEA-γGlu-C20 diacid])E[Aib]AAAQRFLEHLV-NH2) | 0.09 | 18355 |  |  |  | 36686 |  |  | 0.01 | 316
CC(C)C[C@H](NC(=O)[C@H](Cc1ccccc1)NC(=O)[C@H](CCCNC(=N)N)NC(=O)[C@H](CCC(N)=O)NC(=O)[C@H](CC(C)C)NC(=O)C(C)(C)NC(=O)[C@H](C)NC(=O)[C@H](CCC(=O)O)NC(=O)[C@H](CCC(=O)O)NC(=O)[C@H](CCCCNC(=O)COCCOCCNC(=O)COCCOCCNC(=O)CC[C@H](NC(=O)CCCCCCCCCCCCCCCCCCC(=O)O)C(=O)O)NC(=O)[C@H](CC(C)C)NC(=O)[C@@H](NC(=O)[C@H](CO)NC(=O)[C@@H](NC(=O)[C@H](CC(=O)O)NC(=O)[C@H](CO)NC(=O)[C@@H](NC(=O)[C@H](Cc1ccccc1)NC(=O)[C@@H](NC(=O)CNC(=O)[C@H](CCC(=O)O)NC(=O)C(C)(C)NC(=O)[C@@H](N)Cc1c[nH]cn1)[C@@H](C)O)[C@@H](C)O)C(C)C)C(C)C)C(=O)N[C@@H](CCC(=O)O)C(=O)N[C@@H](Cc1c[nH]cn1)C(=O)N[C@@H](CC(C)C)C(=O)N[C@H](C(N)=O)C(C)C [compound 138] (H-H[Aib]EGTFTSDVSVLK([AEEA-AEEA-γGlu-C20 diacid])EEA[Aib]LQRFLEHLV-NH2) | 0.09 | 3306 | 0.0126 | 2569 | 31.6 |  |  |  |  | 
CC(C)C[C@H](NC(=O)[C@H](Cc1ccccc1)NC(=O)[C@H](CCCNC(=N)N)NC(=O)[C@H](CCC(N)=O)NC(=O)[C@H](CCC(=O)O)NC(=O)C(C)(C)NC(=O)[C@H](C)NC(=O)[C@H](CCC(=O)O)NC(=O)[C@H](CCC(=O)O)NC(=O)[C@H](CCCCNC(=O)COCCOCCNC(=O)COCCOCCNC(=O)CC[C@H](NC(=O)CCCCCCCCCCCCCCCCCCC(=O)O)C(=O)O)NC(=O)[C@H](CC(C)C)NC(=O)[C@H](Cc1ccc(O)cc1)NC(=O)[C@H](CO)NC(=O)[C@@H](NC(=O)[C@H](CC(=O)O)NC(=O)[C@H](CO)NC(=O)[C@@H](NC(=O)[C@H](Cc1ccccc1)NC(=O)[C@@H](NC(=O)CNC(=O)[C@H](CCC(=O)O)NC(=O)C(C)(C)NC(=O)[C@@H](N)Cc1c[nH]cn1)[C@@H](C)O)[C@@H](C)O)C(C)C)C(=O)N[C@@H](CCC(=O)O)C(=O)N[C@@H](Cc1c[nH]cn1)C(=O)N[C@@H](CC(C)C)C(=O)N[C@H](C(N)=O)C(C)C [compound 150] (H-H[Aib]EGTFTSDVSYLK([AEEA-AEEA-γGlu-C20 diacid])EEA[Aib]EQRFLEHLV-NH2) | 0.08 | 2766 | 0.00501 | 693266 | 3160 |  |  |  |  | 

Source: patent US20260201008A1, “SECRETIN-DERIVED GLP1R SELECTIVE AGONISTS” (GUBRA A/S, priority 2023, published 2026)
